As usually defined, the IC50 is the concentration at which inhibition is half-maximal.

In this test the target is T1, HCV polymerase (Hepatitis C virus genotype 1b, UniProt P26663).
T1 construct: 2.5 pmoles (0.15 μg) HCV polymerase protein in a final volume of 75 μL
T1 sequence (P26663 2420-3010): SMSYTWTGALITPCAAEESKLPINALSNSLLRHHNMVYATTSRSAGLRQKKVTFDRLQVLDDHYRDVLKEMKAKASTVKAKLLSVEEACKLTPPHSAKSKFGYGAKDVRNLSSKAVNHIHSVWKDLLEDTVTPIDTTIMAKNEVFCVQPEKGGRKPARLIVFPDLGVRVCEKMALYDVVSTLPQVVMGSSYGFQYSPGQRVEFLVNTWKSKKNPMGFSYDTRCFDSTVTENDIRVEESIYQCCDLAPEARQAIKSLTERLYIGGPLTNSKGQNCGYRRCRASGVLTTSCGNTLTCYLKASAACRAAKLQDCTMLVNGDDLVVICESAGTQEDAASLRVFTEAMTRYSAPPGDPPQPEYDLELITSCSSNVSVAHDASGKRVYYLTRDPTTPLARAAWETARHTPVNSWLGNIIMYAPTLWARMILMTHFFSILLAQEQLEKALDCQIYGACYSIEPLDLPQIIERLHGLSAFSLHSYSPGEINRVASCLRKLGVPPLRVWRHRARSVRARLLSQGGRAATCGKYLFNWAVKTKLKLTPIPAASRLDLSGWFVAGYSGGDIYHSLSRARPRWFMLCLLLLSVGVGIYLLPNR
In words: HCV polymerase primer/template-directed transcription assay (32P-GTP incorporation, filter binding). It is filed as biochemical. To be noted: recombinant HCV polymerase; 30 minutes at 30° C.; concentration giving 50% inhibition of polymerase-directed transcription; read-out: IC50. In a few lines: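 IC50s come from triplicate cpm, refit with an enzyme-concentration (30 nM) correction when under 200 nM. Reactions ran 30 min at 30° C in Tris pH 7.2 with MgCl2, 1 μM GTP spiked with α-32P-GTP, biotin-dG12 primer and poly(rC)300 template, with 1% DMSO. Incorporated label was collected on DE filtermats and counted.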
As to `COc1cc(OC)c(CCC2(C3CCCC3)CC(O)=C(Sc3nc4cc(Cl)ccc4n3C(C)C)C(=O)O2)cc1Cl` (stereo not shown) [C(73), 6-[2-(5-Chloro-2,4-dimethoxyphenyl)ethyl]-3-[(5-chloro-1-isopropyl-1H-benzimidazol-2-yl)thio]-6-cyclopentyl-4-hydroxy-5,6-dihydro-2H-pyran-2-one], the IC50 was 0.035 µM.

As to `COc1cc(OC)c(CCC2(C3CCCC3)CC(O)=C(Sc3nc(O)cc(C(F)(F)F)n3)C(=O)O2)cc1Cl` (stereo not shown) [C(74), 6-[2-(5-chloro-2,4-dimethoxyphenyl)ethyl]-6-cyclopentyl-4-hydroxy-3-{[4-hydroxy-6-(trifluoromethyl)pyrimidin-2-yl]thio}-5,6-dihydro-2H-pyran-2-one], the IC50 was determined as 0.099 µM.

In the case of `COc1cc(OC)c(CCC2(C3CCCC3)CC(O)=C(Sc3nnc(-c4cccnc4)[nH]3)C(=O)O2)cc1Cl` (stereo not shown) [C(75), 6-[2-(5-chloro-2,4-dimethoxyphenyl)ethyl]-6-cyclopentyl-4-hydroxy-3-[(5-pyridin-3-yl-4H-1,2,4-triazol-3-yl)thio]-5,6-dihydro-2H-pyran-2-one], the IC50 is 0.044 µM.

As to `COc1cc(OC)c(CCC2(C3CCCC3)CC(O)=C(Sc3nc4cc(N)ccc4n3C)C(=O)O2)cc1Cl` (stereo not shown) [C(76), 3-[(5-amino-1-methyl-1H-benzimidazol-2-yl)thio]-6-[2-(5-chloro-2,4-dimethoxyphenyl)ethyl]-6-cyclopentyl-4-hydroxy-5,6-dihydro-2H-pyran-2-one], the IC50 worked out at 0.053 µM.

Turning to `COc1cc(OC)c(CCC2(C3CCCC3)CC(O)=C(Sc3ncc(-c4cccnc4)[nH]3)C(=O)O2)cc1Cl` (stereo not shown) [C(77), 6-[2-(5-chloro-2,4-dimethoxyphenyl)ethyl]-6-6cyclopentyl-4-hydroxy-3-[(5-pyridin-3-yl-1H-imidazol-2-yl)thio]-5,6-2H-pyran-2-one], the IC50 is 0.062 µM.

In the case of `COc1cc(OC)c(CCC2(C3CCCC3)CC(O)=C(Sc3nccnc3C)C(=O)O2)cc1Cl` (stereo not shown) [C(78), 6-[2-(5-chloro-2,4-dimethoxyphenyl)ethyl]-6-cyclopentyl-4-hydroxy-3[(3-methylpyrazin-2-yl)thio]-5,6-dihydro-2H-pyran-2-one], the IC50 is 0.047 µM.

As for `COc1cccc(-c2nnc(SC3=C(O)CC(CCc4cc(Cl)c(OC)cc4OC)(C4CCCC4)OC3=O)n2C)c1` (stereo not shown) [C(79), 6-[2-(5-chloro-2,4-dimethoxyphenyl)ethyl]-6-cyclopentyl-4-hydroxy-3-{[5-(3-methoxyphenyl)-4-methyl-4H-1,2,4-triazol-3-yl]thio}-5,6-dihydro-2H-pyran-2-one], the IC50 turned out to be 0.063 µM.

Consider `COc1cc(OC)c(CCC2(C3CCCC3)CC(O)=C(Sc3nnc(O)n3C(C)C)C(=O)O2)cc1Cl` (stereo not shown) [C(80), 6-[2-(5-chloro-2,4-dimethoxyphenyl)ethyl]-6-cyclopentyl-4-hydroxy-3-[(5-hydroxy-4-isopropyl-4H-1,2,4-triazol-3-yl)thio]-5,6-dihydro-2H-pyran-2-one], for which the IC50 worked out at 0.031 µM.

In the case of `COc1cc(OC)c(CCC2(C3CCCC3)CC(O)=C(Sc3nnc(-c4ccc(O)cc4)[nH]3)C(=O)O2)cc1Cl` (stereo not shown) [C(81), 6-[2-(5-chlor-2,4-dimethoxyphenyl)ethyl]-6-cyclopentyl-4-hydroxy-3-{[5-(4-hydroxyphenyl)-4H-1,2,4-triazol-3-yl]thio}-5,6-dihydro-2H-pyran-2-one], the IC50 turned out to be 0.014 µM.

For `COc1cc(OC)c(CCC2(C3CCCC3)CC(O)=C(Sc3nc4nc(C)ccn4n3)C(=O)O2)cc1Cl` (stereo not shown) [C(82), 6-[2-(5-chloro-2,4-dimethoxyphenyl)ethyl]-6-cyclopentyl-4-hydroxy-3-[(5-methyl[1,2,4]triazolo[1,5-a]pyrimidin-2-yl)thio]-5,6-dihydro-2H-pyran-2-one], the IC50 was determined as 0.027 µM.

Regarding `COc1cc(OC)c(CCC2(C3CCCC3)CC(O)=C(Sc3nnc(CN(C)C)n3C)C(=O)O2)cc1Cl` (stereo not shown) [C(83)], the IC50 was found to be 0.04 µM.

In the case of `COc1cc(OC)c(CCC2(C3CCCC3)CC(O)=C(Sc3nc4ncccn4n3)C(=O)O2)cc1Cl` (stereo not shown) [C(84)], the IC50 stood at 0.033 µM.

On to `COc1cc(OC)c(CCC2(C3CCCC3)CC(O)=C(Sc3nnc(-c4cccnc4)n3C)C(=O)O2)cc1Cl` (stereo not shown) [C(85), 6-[-(5-chloro-2,4-dimethoxyphenyl)ethyl]-6-cyclopentyl-4-hydroxy-3-[(4-methyl-5-pyridin-3-yl-4H-1,2,4-triazol-3-yl)thio]-5,6-dihydro-2H-pyran-2-one], for which the IC50 came out at 0.035 µM.

In the case of `COc1cc(OC)c(CCC2(C3CCCC3)CC(O)=C(Sc3nnc(C)n3CCN3CCOCC3)C(=O)O2)cc1Cl` (stereo not shown) [C(86), 6-[2-(5-chloro-2,4-dimethoxyphenyl)ethyl]-6-cyclopentyl-4-hydroxy-3-{[5-methyl-4-(2-morpholin-4-ylethyl)-4H-1,2,4-triazol-3-yl]thio}-5,6-dihydro-2H-pyran-2-one], the IC50 came out at 0.048 µM.

Consider `COc1cc(OC)c(CCC2(C3CCCC3)CC(O)=C(Sc3nc4ncc(C)cn4n3)C(=O)O2)cc1Cl` (stereo not shown) [C(87), 6-[2-(5-chloro-2,4-dimethoxyphenyl)ethyl]-6-cyclopentyl-4-hydroxy-3-[(6-methyl[1,2,4]triazolo[1,5-a]pyrimidin-2-yl)thio]-5,6-dihydro-2H-pyran-2-one], for which the IC50 is 0.028 µM.

Take `COc1cc(OC)c(CCC2(C3CCCC3)CC(O)=C(Sc3nnc(C)n3C)C(=O)O2)cc1Cl` (stereo not shown) [C(88), 6-[2-(5-chloro-2,4-dimethoxyphenyl)ethyl]-6-cyclopentyl-3-[(4,5-dimethyl-4H-1,2,4-triazol-3-yl)thio]-4-hydroxy-5,6-dihydro-2H-pyran-2-one]: the IC50 was 0.022 µM.

`COC(=O)c1nnc(SC2=C(O)CC(CCc3cc(Cl)c(OC)cc3OC)(C3CCCC3)OC2=O)n1C` (stereo not shown) [C(89), methyl 5-({6-[2-(5-chloro-2,4-dimethoxyphenyl)ethyl]-6-cyclopentyl-4-hydroxy-2-oxo-5,6-dihydro-2H-pyran-3-yl}thio)-4-methyl-4H-1,2,4-triazole-3-carboxylate]: the IC50 was determined as 0.02 µM.

On to `COc1cc(OC)c(CCC2(C3CCCC3)CC(O)=C(Sc3nnc(CCN4CCOCC4)n3C)C(=O)O2)cc1Cl` (stereo not shown) [C(90), 6-[2-(5-chloro-2,4-dimethoxyphenyl)ethyl]-6-cyclopentyl-4-hydroxy-3-{[4-methyl-5-(2-morpholin-4-ylethyl)-4H-1,2,4-triazol-3-yl]thio}-5,6-dihydro-2H-pyran-2-one], for which the IC50 was determined as 0.04 µM.

For `COc1ccc(CCC2(C3CCCC3)CC(O)=C(Sc3nc4ncnc(O)c4[nH]3)C(=O)O2)cc1Cl` (stereo not shown) [C(91), 3 6-[2-(3-chlor-4-methoxyphenyl)ethyl]-6-cyclopentyl-4-hydroxy-3-[(6-hydroxy-7H-purin-8-yl)thio]-5,6-dihydro-2H-pyran-2-one], the IC50 was 0.04 µM.

For `COc1ccc(CCC2(C3CCCC3)CC(O)=C(Sc3nnc(-c4cccnc4)[nH]3)C(=O)O2)cc1Cl` (stereo not shown) [C(92), 6-[2-(3-chloro-4-methoxyphenyl)ethyl]-6-cyclopentyl-4-hydroxy-3-[(5-pyridin-3-yl-4H-1,2,4-triazol-3-yl)thio]-5,6-dihydro-2H-pyran-2-one], the IC50 was 0.082 µM.

Regarding `CCOC(=O)c1cnc2nc(SC3=C(O)CC(CCc4cc(Cl)c(OC)cc4OC)(C4CCCC4)OC3=O)nn2c1` (stereo not shown) [C(93), ethyl 2-({6-[2-(5-chloro-2,4-dimethoxyphenyl)ethyl]-6-cyclopentyl-4-hydroxy-2-oxo-5,6-dihydro-2H-pyran-3-yl}thio)[1,2,4]triazolo[1,5-a]pyrimidine-6-carboxylate], the IC50 was 0.014 µM.

As to `CCOC(=O)c1cnc2nc(SC3=C(O)CC(CCc4ccc(OC)c(Cl)c4)(C4CCCC4)OC3=O)nn2c1` (stereo not shown) [C(94), ethyl 2-({6-[2-(3-chloro-4-methoxyphenyl)ethyl]-6-cyclopentyl-4-hydroxy-2-oxo-5,6-dihydro-2H-pyran-3-yl}thio)[1,2,4]triazolo[1,5-a]pyrimidine-6-carboxylate], the IC50 worked out at 0.087 µM.

With `COc1ccc(CCC2(C3CCCC3)CC(O)=C(Sc3nc4nccc(C)n4n3)C(=O)O2)cc1Cl` (stereo not shown) [C(95), 6-[2-(3-chloro-4-methoxyphenyl)ethyl]-6-cyclopentyl-4-hydroxy-3-[(7-methyl[1,2,4]triazolo[1,5-a]pyrimidin-2-yl)thio]-5,6-dihydro-2H-pyran-2-one], the IC50 stood at 0.074 µM.

For the compound `COc1ccc(CCC2(C3CCCC3)CC(O)=C(Sc3nnc(-c4cccnc4)n3C)C(=O)O2)cc1Cl` (stereo not shown) [C(96)], the IC50 was 0.075 µM.

Take `COc1ccc(CCC2(C3CCCC3)CC(O)=C(Sc3nnc(CN(C)C)n3C)C(=O)O2)cc1Cl` (stereo not shown) [C(97), 6-[2-(3-chloro-4-methoxyphenyl)ethyl]-6-cyclopentyl-3-({5-[(dimethylamino)methyl]-4-methyl-4H-1,2,4-triazol-3-yl}thio)-4-hydroxy-5,6-dihydro-2H-pyran-2-one]: the IC50 worked out at 0.12 µM.

As for `COc1ccc(CCC2(C3CCCC3)CC(O)=C(Sc3nc4ncc(C)cn4n3)C(=O)O2)cc1Cl` (stereo not shown) [C(98), 6-[2-(3-chloro-4-methoxyphenyl)ethyl]-6-cyclopentyl-4-hydroxy-3-[(6-methyl[1,2,4]triazolo[1,5-a]pyrimidin-2-yl)thio]-5,6-dihydro-2H-pyran-2-one], the IC50 was determined as 0.068 µM.

For the compound `COc1ccc(CCC2(C3CCCC3)CC(O)=C(Sc3nnc(C)n3C)C(=O)O2)cc1Cl` (stereo not shown) [C(99), 6-[2-(3-chloro-4-methoxyphenyl)ethyl]-6-cyclopentyl-3-[(4,5-dimethyl-4H-1,2,4-triazol-3-yl)thio]-4-hydroxy-5,6-dihydro-2H-pyran-2-one], the IC50 turned out to be 0.079 µM.

Take `COC(=O)c1nnc(SC2=C(O)CC(CCc3ccc(OC)c(Cl)c3)(C3CCCC3)OC2=O)n1C` (stereo not shown) [C(100), methyl 5-({6-[2-(3-chloro-4-methoxyphenyl)ethyl]-6-cyclopentyl-4-hydroxy-2-oxo-5,6-dihydro-2H-pyran-3-yl}thio)-4-methyl-4H-1,2,4-triazole-3-carboxylate]: the IC50 amounted to 0.032 µM.

(Values after patent publication US7473790B2 (Pfizer Inc., priority 2003, dated 2009).)
